The values that follow come from patent US20230271983A1, “FUNCTIONALIZED ISONITRILES AND PRODUCTS, PREPARATION AND USES THEREOF” (UNIVERSIDADE DE SANTIAGO DE COMPOSTELA, priority 2020, published 2023).

One assay has as its target T1, Dopamine D3 receptor (Homo sapiens, UniProt P35462).
T1 construct: purchased Perkin Elmer ES-173M400UA
The experiment in a line: Dopamine D3 receptor competition binding, [3H]-Spiperone. Conditions: 1 nM [3H]-Spiperone. How it is done:
(§1) was evaluated in vitro using radioligand binding assays following a previously described protocol (J. Med. Chem., 2020, 63, 613-620, Eur. J. Med. Chem., 2019, 180, 673-689). Dopamine D2 receptor competition binding experiments were carried out in a polypropilene 96-well plate. In each well was incubated 10 μg of membranes from CHO-D2 #S20 cell line prepared in Biofarma laboratory (Lot: A002/22-07-2015, protein concentration=4185 μg/ml), 0.15 nM [3H]-Spiperone (80.2 Ci/mmol, 1 mCi/ml, Perkin Elmer NET1187001MC) and compounds studied and standard. Non-specific binding was determined in the presence of Sulpiride 10 μM (Sigma S112). The reaction mixture (Vt: 250 μl/well) was incubated at 25° C. for 120 min, 200 μL was transferred to GF/C 96-well plate (Millipore, Madrid, Spain) pretreated with 0.5% of PEI and treated with binding buffer (Tris-HCl 50 mM, EDTA 1 mM, MgCl2 5 mM, KCl 5 mM, NaCl 120 mM, pH=7.4), after was filtered and washed four times with 250 μl wash buffer (Tris-HCl 50 mM, NaCl 0.9%, pH=7.4), before measuring in a microplate beta scintillation counter (Microbeta Trilux, PerkinElmer). Dopamine D3 receptor competition binding experiments were carried out in a polypropilene 96-well plate. In each well was incubated 2 μg of membranes from D3 cell line (Perkin Elmer, ES-173M400UA, protein concentration=1000 μg/ml), 1 nM [3H]-Spiperone (68 Ci/mmol, 1 mCi/ml, Perkin Elmer NET1187001MC) and compounds studied and standard. Non-specific binding was determined in the presence of Haloperidol 1 μM (Sigma H1512). The reaction mixture (Vt: 250 μl/well) was incubated at 25° C. for 60 min, 200 μL was transferred to GF/C 96-well plate (Millipore, Madrid, Spain) pretreated with 0.5% of PEI and treated with binding buffer (Tris-HCl 50 mM, MgCl2 5 mM, pH=7.4), after was filtered and washed four times with 250 μl wash buffer (Tris-HCl 50 mM, pH=7.4), before measuring in a microplate beta scintillation counter (Microbeta Trilux, PerkinElmer, Madrid, Spain).

A further assay addresses T2, Dopamine D2 receptor (Homo sapiens, UniProt P14416).
T2 construct: expressed in transfected cells; host or cells: CHO-D2 #S20 (membranes prepared in Biofarma laboratory)
The experiment in a line: Dopamine D2 receptor competition binding, [3H]-Spiperone, CHO-D2 membranes. The following applies: 0.15 nM [3H]-Spiperone. How it is done:
as §1

Another assay addresses T3, human A1AR (Homo sapiens, UniProt P30542).
T3 construct: expressed in transfected cells; host or cells: CHO
T3 sequence (P30542 1-326): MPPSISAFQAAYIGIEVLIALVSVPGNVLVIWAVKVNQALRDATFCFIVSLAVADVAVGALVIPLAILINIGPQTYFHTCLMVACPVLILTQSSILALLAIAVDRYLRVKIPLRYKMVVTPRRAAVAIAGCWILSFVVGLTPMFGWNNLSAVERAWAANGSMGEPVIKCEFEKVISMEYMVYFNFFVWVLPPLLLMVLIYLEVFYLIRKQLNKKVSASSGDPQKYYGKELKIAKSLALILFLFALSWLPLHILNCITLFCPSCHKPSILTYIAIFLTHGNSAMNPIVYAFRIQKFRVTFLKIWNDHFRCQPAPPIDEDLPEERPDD
The experiment in a line: A1AR radioligand competition binding, [3H]DPCPX, CHO cell membranes. The following applies: for Ki: 1 nM [3H]DPCPX, 25° C. 60 min, read-out: A1 Ki; for inhibition at 1 µM: read-out: A1 specific binding inhibition percentage. From the text: (§2) was evaluate in vitro using radioligand binding assays following a previously described protocol (J. Med. Chem. 2019, 62, 9315-9330). Human ARs were expressed in transfected cell lines [e.g. chinese hamster ovary (CHO) cells (A1AR), human epithelial carcinoma (HeLa) cells (A2AAR and A3AR) and human embryonic kidney (HEK-293) cells (A2BAR)]. [^3H]DPCPX for A1AR and A2BAR, [^3H]NECA for A3AR, and [^3H]ZM241385 for A2AAR were employed as radioligands. […] Using Prism 5.0 software (GraphPad, San Diego, Calif.) K; values were acquired by fitting the data by non-linear regression. Results are the average of three experiments, each of them performed in duplicate. Radioligand binding competition assays were performed in vitro using human ARs expressed in transfected HeLa [hA2AAR (9 pmol/mg protein) and hA3AR (3 pmol/mg protein)], HEK-293 [hA2BAR (1.5 pmol/mg protein)] and CHO [hA1AR (1.5 pmol/mg protein)] cells. A brief description is given below. A1AR competition binding experiments were carried out in membranes from CHO-A, cells labelled with 1 nM [^3H]DPCPX (KD=0.7 nM). Non-specific binding was determined in the presence of 10 μM R-PIA. The reaction mixture was incubated at 25° C. for 60 min. A2AAR competition binding experiments were carried out in membranes from HeLa-A2A cells labelled with 3 nM [^3H]ZM241385 (KD=2 nM). Non-specific binding was determined in the presence of 50 μM NECA. The reaction mixture was incubated at 25° C. for 30 min. […] Non-specific binding was determined in the presence of 400 μM NECA. The reaction mixture was incubated at 25° C. for 30 min. A3AR competition binding experiments were carried out in membranes from HeLa-A3 cells labelled with 10 nM [^3H]NECA (KD=8.7 nM). Non-specific binding was determined in the presence of 100 μM R-PIA. The reaction mixture was incubated at 25° C. for 180 min. After the incubation time, membranes were washed and filtered, radioactivity was detected in a Microbeta Trilux reader (PerkinElmer).
(§3) The adenosinergic (affinity and selectivity) profile of several compounds of the invention was evaluated according to the above examples.

The target in another assay is T4, human A3AR (Homo sapiens, UniProt P0DMS8).
T4 construct: expressed in transfected cells; host or cells: HeLa
T4 sequence (P0DMS8 1-318): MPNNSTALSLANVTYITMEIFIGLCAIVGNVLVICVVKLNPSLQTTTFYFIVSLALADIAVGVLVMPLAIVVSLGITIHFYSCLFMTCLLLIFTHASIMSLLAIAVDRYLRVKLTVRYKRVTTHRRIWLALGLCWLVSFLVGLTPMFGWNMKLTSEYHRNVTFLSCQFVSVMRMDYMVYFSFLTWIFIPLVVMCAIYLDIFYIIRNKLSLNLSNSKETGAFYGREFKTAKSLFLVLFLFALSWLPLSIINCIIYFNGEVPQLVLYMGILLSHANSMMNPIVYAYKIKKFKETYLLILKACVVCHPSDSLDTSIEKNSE
The experiment in a line: A3AR radioligand competition binding, [3H]NECA, HeLa cell membranes. Conditions: for Ki: 10 nM [3H]NECA, 25° C. 180 min, read-out: A3 Ki; for inhibition at 1 µM: read-out: A3 specific binding inhibition percentage.
From the text: as §2, §3

In the next assay the target is T5, human A2BAR (Homo sapiens, UniProt P29275).
T5 construct: host or cells: HEK-293
T5 sequence (P29275 1-332): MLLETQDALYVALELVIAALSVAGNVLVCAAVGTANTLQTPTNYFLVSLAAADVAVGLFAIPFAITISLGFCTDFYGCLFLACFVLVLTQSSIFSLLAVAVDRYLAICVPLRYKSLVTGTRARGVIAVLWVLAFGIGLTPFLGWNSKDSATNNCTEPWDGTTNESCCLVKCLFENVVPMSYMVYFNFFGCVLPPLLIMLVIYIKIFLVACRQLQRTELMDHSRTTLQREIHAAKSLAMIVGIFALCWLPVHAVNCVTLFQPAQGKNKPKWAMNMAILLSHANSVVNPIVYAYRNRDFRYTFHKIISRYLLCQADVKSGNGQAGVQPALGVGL
The experiment in a line: A2BAR radioligand competition binding, [3H]DPCPX, HEK-293 cell membranes. The following applies: for Ki: 25 nM [3H]DPCPX, 25° C. 30 min, read-out: A2B Ki; for inhibition at 1 µM: read-out: A2B specific binding inhibition percentage.
From the text: as §2, §3

Another assay addresses T6, human A2AAR (Homo sapiens, UniProt P29274).
T6 construct: expressed in transfected cells; host or cells: HeLa
The experiment in a line: A2AAR radioligand competition binding, [3H]ZM241385, HeLa cell membranes. The following applies: for inhibition at 1 µM: read-out: A2A specific binding inhibition percentage; for Ki: 3 nM [3H]ZM241385, 25° C. 30 min, read-out: A2A Ki.
From the text: as §2, §3

For the next assay, the target named is T7, D4 (Homo sapiens, UniProt P21917).
T7 sequence (P21917 1-419): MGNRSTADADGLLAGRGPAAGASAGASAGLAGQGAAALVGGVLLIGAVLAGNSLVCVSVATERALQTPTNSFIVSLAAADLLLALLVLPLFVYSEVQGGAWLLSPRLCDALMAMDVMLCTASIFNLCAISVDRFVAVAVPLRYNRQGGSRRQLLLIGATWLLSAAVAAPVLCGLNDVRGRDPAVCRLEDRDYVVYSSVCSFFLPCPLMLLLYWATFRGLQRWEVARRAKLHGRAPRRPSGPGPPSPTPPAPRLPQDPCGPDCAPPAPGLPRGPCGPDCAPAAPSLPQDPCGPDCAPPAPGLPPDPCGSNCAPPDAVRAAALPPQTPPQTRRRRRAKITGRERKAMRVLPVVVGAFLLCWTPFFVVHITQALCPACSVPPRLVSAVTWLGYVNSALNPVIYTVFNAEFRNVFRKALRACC
The experiment in a line: Dopamine D4 radioligand binding.

T1 sequence (P35462 whole entry): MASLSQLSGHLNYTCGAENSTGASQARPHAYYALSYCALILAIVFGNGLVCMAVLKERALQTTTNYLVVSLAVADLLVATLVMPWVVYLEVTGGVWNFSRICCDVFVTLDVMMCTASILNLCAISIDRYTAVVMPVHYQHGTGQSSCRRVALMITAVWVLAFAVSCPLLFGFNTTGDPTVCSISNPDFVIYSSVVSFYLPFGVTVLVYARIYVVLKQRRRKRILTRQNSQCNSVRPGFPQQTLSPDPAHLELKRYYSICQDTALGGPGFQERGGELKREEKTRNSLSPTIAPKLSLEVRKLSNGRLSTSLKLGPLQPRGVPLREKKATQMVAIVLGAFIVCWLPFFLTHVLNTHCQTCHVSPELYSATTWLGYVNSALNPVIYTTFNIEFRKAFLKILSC
T2 sequence (P14416 whole entry, species assumed): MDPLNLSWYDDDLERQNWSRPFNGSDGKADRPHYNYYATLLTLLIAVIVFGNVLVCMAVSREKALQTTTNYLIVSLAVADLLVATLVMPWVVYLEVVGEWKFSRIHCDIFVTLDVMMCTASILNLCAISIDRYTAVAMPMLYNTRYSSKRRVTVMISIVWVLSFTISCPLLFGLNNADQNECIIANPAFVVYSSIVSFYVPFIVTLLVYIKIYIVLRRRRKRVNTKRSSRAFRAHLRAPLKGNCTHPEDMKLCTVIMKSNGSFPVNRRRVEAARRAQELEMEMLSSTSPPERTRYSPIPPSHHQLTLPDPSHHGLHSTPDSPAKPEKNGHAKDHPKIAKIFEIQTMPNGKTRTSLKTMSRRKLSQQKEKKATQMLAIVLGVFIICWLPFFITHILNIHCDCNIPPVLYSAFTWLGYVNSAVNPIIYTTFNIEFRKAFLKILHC
T6 sequence (P29274 whole entry): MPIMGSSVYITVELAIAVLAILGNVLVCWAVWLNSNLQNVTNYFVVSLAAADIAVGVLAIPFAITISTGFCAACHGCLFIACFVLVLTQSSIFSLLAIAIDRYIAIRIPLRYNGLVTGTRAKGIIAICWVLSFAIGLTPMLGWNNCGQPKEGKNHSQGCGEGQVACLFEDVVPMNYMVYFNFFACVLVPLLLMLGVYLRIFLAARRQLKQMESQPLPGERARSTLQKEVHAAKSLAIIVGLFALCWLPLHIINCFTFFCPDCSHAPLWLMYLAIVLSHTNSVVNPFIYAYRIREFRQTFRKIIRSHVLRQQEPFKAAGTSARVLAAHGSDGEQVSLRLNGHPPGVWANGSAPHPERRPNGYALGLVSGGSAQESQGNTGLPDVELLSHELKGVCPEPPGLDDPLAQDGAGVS

Broadly, the Ki is a dissociation constant, usually derived from enzyme kinetics or from competition with a known ligand. Regarding `CN(CC(=O)NCCCOCCOCCOCCCNC(=O)CN(C)C(=O)COc1ccc(-c2ccc3n2[B-](F)(F)[N+]2=C(c4cccs4)C=CC2=C3)cc1)C(=O)CCC(=O)Nc1ccc(CCN2CN(c3ccccc3)C3(CCN(CCCC(=O)c4ccc(F)cc4)CC3)C2=O)cc1`, the Ki on Dopamine D3 receptor worked out at 148 nM; on Dopamine D2 receptor, 1.06 nM.

One may read the inhibition as the relative decrease from the control value, in per cent. For `CCCn1c(=O)c2[nH]c(-c3ccc(OCC(=O)NCC(=O)N4CCN(CC(=O)NCCCOCCOCCOCCCNC(=O)CN(C)C(=O)COc5ccc(C6=[N+]7C(=Cc8ccc(-c9cccs9)n8[B-]7(F)F)C=C6)cc5)CC4)cc3)cc2n(C)c1=O`, the Ki was found to be 471 nM at human A1AR, 42.7 nM on human A3AR and 39.6 nM at human A2BAR. For the same compound, the inhibition at 1 µM at human A2AAR came to 23%.

On to `COc1ccc(-c2cc(NC(=O)COCC(=O)N(C)CC(=O)NCCOCCOCCOCCOCCNC(=O)CN(C)C(=O)CCCOc3ccc(CN4CCN(c5ccccc5OC)CC4)cc3OC)nc(-c3ccc(OC)cc3)n2)cc1`, for which the figures for the inhibition at 1 µM on human A1AR, at human A2BAR and on human A2AAR were 8%, 4% and 5%, respectively. The Ki at human A3AR was 10 nM; at Dopamine D3 receptor it was 2600 nM; at Dopamine D2 receptor it was 30 nM.

Regarding `[C-]#[N+]CCCOCCOCCOCCCNC(=O)CN1CCN(C(=O)CNC(=O)COc2ccc(-c3cc4c([nH]3)c(=O)n(CCC)c(=O)n4C)cc2)CC1`, the inhibitory constant (Ki) at human A1AR amounted to 101 nM; on human A3AR it was 195 nM; on human A2BAR, 78.6 nM. In addition, at human A2AAR, the inhibition at 1 µM was 13%.

For `COc1ccc(-c2cc(NC(=O)CCC(=O)N(C)CC(=O)NCCCOCCOCCOCCCNC(=O)CN(C)C(=O)COc3ccc(-c4ccc5n4[B-](F)(F)[N+]4=C(c6cccs6)C=CC4=C5)cc3)nc(-c3ccc(OC)cc3)n2)cc1`, the Ki on human A3AR came out at 6.13 nM.

For the compound `[C-]#[N+]CCCOCCOCCOCCCNC(=O)CN(C)C(=O)/C=C/c1ccc2sc(C(=O)NCCCCN3CCN(c4cccc(Cl)c4Cl)CC3)cc2c1`, the inhibition constant Ki at Dopamine D3 receptor was 1 nM; on Dopamine D2 receptor, 1.1 nM; at D4, 500 nM.

Take `CN(CC(=O)NCCCOCCOCCOCCCNC(=O)CN(C)C(=O)CC(C)(C)CC(=O)Nc1c(F)cc(C(=O)Nc2nccs2)cc1F)C(=O)CCCCCN1/C(=C/C=C/C=C/C2=[N+](C)c3ccccc3C2(C)C)C(C)(C)c2ccccc21`: the results for the inhibition at 1 µM on human A1AR, on human A3AR and at human A2BAR were 31%, 37% and 18%, respectively. On human A2AAR, the Ki turned out to be 8.35 nM.

In the case of `CN(CC(=O)NCCOCCOCCNC(=O)CN(C)C(=O)CC(C)(C)CC(=O)Nc1c(F)cc(C(=O)Nc2nccs2)cc1F)C(=O)CCCCCN1/C(=C/C=C/C=C/C2=[N+](C)c3ccccc3C2(C)C)C(C)(C)c2ccccc21`, the inhibition at 1 µM at human A1AR came out at 33%; at human A3AR, 54%; on human A2BAR it was 59%. Further, the Ki on human A2AAR was determined as 420 nM.

Turning to `CCCn1c(=O)c2[nH]c(-c3ccc(OCC(=O)NCC(=O)N4CCN(C(C)(C)C(=O)NCCCOCCOCCOCCCNC(=O)CN(C)C(=O)COc5ccc(C6=[N+]7C(=Cc8ccc(-c9cccs9)n8[B-]7(F)F)C=C6)cc5)CC4)cc3)cc2n(C)c1=O`, the inhibition at 1 µM at human A1AR stood at 46%; at human A3AR, 37%; on human A2AAR, 1%. Also, on human A2BAR, the inhibitory constant (Ki) worked out at 250 nM.
